Values of other authors as cited in patent US20070116643A1, “Novel aryloxypropanamines” (Concert Pharmaceuticals Inc., priority 2005, published 2007).
Where a name gives a salt, the structure may show the parent alone.

What was measured:
5-HT reuptake [1] = settings: rodent models
[2] = tested on: central monoamine receptors
5-HT reuptake [3] = settings: in humans
NE reuptake = settings: in humans

Q: Which “inhibition of neural cell firing / 5-HT reuptake” value (5-HT reuptake [1]) does the source give for `CNCC[C@H](Oc1cccc2ccccc12)c1cccs1` [Compound A, (S)-N-methyl-3-(naphthalen-1-yloxy)-3-(thiophen-2-yl)propan-1-amine hydrochloride] here?
A: The value was “inhibiting neural cell firing by reducing reuptake of 5-HT”.

Q: And the “affinity for central monoamine receptors” value [2]?
A: Its value is “lacks affinity for central monoamine receptors”.

Q: And the “inhibition of 5-HT reuptake” value (5-HT reuptake [3])?
A: Its value is “recapitulates the preclinically observed inhibition of 5-HT and NE reuptake”.

Q: And the “inhibition of NE reuptake” value (NE reuptake)?
A: The value was “recapitulates the preclinically observed inhibition of 5-HT and NE reuptake”.

Q: And the “circulating radioactivity attributable to parent drug, AUC basis” value (humans, radiolabeled Compound A)?
A: Its value is “approximately 3%”.

Q: What about the extent of metabolism (oral administration to humans, predominantly oxidative mechanisms) of the same compound?
A: Its extent of metabolism is “rapidly and extensively metabolized”.
